Patent US9650497B2, “Phosphonamidates-synthesis and flame retardant applications” (EMPA EIDGENOSSISCHE MATERIALPRUFUNGS- UND FORSCHUNGSANSTALT, priority 2011, dated 2017)
Read-outs that look alike come from different tables or passages of the source.

What was measured:
[1] = BKZ flammability test (Swiss standard, vertical burning)
Protocol: The synthesized compounds were evaluated for flame retardant properties by incorporating them in flexible PU foams.
The flexible polyurethane foams were manufactured according to the recipe mentioned in Table 3 below.
The manufacture of the foams according to the formulations in Table 3 was done by handmix in the laboratory based on 200 gms polyol. The formulation of the components taking part in the reaction was identical in all cases except for the addition of Flame retardants where indicated.
The resulting foams were dried and aged for 3 h at 80° C. The foams were then tested for their flammability according to Swiss flammability standard (BKZ). It's a vertical burning test for foamed materials with a specific sample size (length: 160 mm, width: 60 mm, thickness: 6 mm±10% tolerance). For each specimen flame test (BKZ) was performed in triplicate. If the results were not consistent, each specimen was tested 6 times. For the BKZ test an air dried specimen was placed in a vertical position and subjected to flame from the lower front edge by a standardized flame. The flame height of 20 mm was maintained and should burn constantly with sharp outlines. The burner position was adjusted 45° so that the flame hits the specimen vertically in the middle of the lower front edge. The flame is brought in contact with the foam for 15 sec and should be placed such that the foam bottom is approximately 4±1 mm inside the flame from the tip.

[2] = TGA thermal decomposition of DOPO and amino DOPO derivatives; type: physicochemical; conditions: for TdMax: Temperature for maximum decomposition rate: several values = multiple decomposition stages
Protocol: One of the important objectives of developing various amino derivatives of DOPO was to improve the thermal stability of DOPO itself. This will ensure their suitability to be used in thermoplastic polymers which require usually high processing temperatures (200-350° C.).

[3] = UL-94 HB test (ASTM D4986 or ISO/DIS 9772.3, horizontal); conditions: for flame retardancy effect compared to unmodified DOPO: Table 6; for UL 94 HB test rating (Horizontal): OH terminated prepolymer foam
[4] = Small Burner test, DIN 4102-1 class B2, edge application of flame; conditions: spray foam
Protocol: The Small Burner test equipment employed within this patent is in accordance to the requirements for the tests of the building materials class B2 specified in DIN 4102-1.
All flame tests done within this report are based on edge application of the impinging flame.
The B2-burner tests were carried out approx. one week after foaming.

[5] = Water solubility of DOPO compounds; type: physicochemical; conditions: for water solubility in words: up to 90° C.; for solubility: water
Text: These DOPO-derivatives are very barely soluble in water as it is exemplarily shown for EDAB-DOPO and TEPA-PDOPO in table 2.

[6] = 5% FR in flexible PU foam (Table 3 recipe, handmix)
[7] = 25° C., read-out: solubilitiy FR in water mg/L
[8] = 25° C., read-out: solubilitiy FR in water mmol/L
[9] = 90° C., read-out: solubilitiy FR in water mg/L
[10] = 90° C., read-out: solubilitiy FR in water mmol/L

SMILES	BKZ Classification [1, 6]	Td1: Temperature for 10% weight loss [2] [°C]	% Char at 800° C. [2] [%]	TdMax: Temperature for maximum decomposition rate [2]	Burning Rate ([3]; 5% FR in flexible PU foam) [mm/min]	UL-94 HB Rating ([3]; 5% FR in flexible PU foam)	further results
C=CCNP1(=O)Oc2ccccc2-c2ccccc21 (centres unmarked) [AA-DOPO]	Class 5 (flame does not reach the top level of the sample holder (150 mm). duration ≦ 20 s)	247	3	295 °C	47	HF-2	flame retardancy effect compared to unmodified DOPO ([3]; 5% FR in flexible PU foam): better flame retardancy effect as compared to unmodified DOPO
O=[PH]1Oc2ccccc2-c2ccccc21 (centres unmarked) [DOPO, 9,10-dihydro-9-oxa-phosphaphenanthrene-10-oxide, reference compound]	Class 5 (flame does not reach the top level of the sample holder (150 mm). duration ≦ 20 s)	201	2	267 °C	48	HBF	temperature at which decomposition starts [2]: < 200 °C
O=P1(NCCOP2(=O)Oc3ccccc3-c3ccccc32)Oc2ccccc2-c2ccccc21 (centres unmarked) [EAB-DOPO]	–	311	2	387 °C	–	–	–
O=P1(NCCNP2(=O)Oc3ccccc3-c3ccccc32)Oc2ccccc2-c2ccccc21 (centres unmarked) [EDAB-DOPO]	Class 5 (flame does not reach the top level of the sample holder (150 mm). duration ≦ 20 s)	355	7	415 °C	25	HF-1	effect of doubling the amount of FR on flame height and extinguishing of the flame [4]: no significant effect; flammability performance versus TCPP ([1]; polyether foam, lower density, 2.8 pphp water, columns 3 and 5): works better at least in vertical tests; effect on flammability versus foam without FR ([1]; polyether foam, water 1.6 pphp, columns 4 and 1): positive effect on flammability; flammability performance versus TCPP ([1]; polyether foam, water 1.6 pphp, columns 4 and 2): works at least as well than TCPP; water solubility in words [5]: only very small amounts; solubility [5, 7]: 393 mg/L; solubility [5, 8]: 0.8 mmol/L; solubility [5, 9]: 501 mg/L; solubility [5, 10]: 1.03 mmol/L; flame retardancy effect compared to unmodified DOPO ([3]; 5% FR in flexible PU foam): better flame retardancy effect as compared to unmodified DOPO
O=P1(N2CCN(P3(=O)Oc4ccccc4-c4ccccc43)CC2)Oc2ccccc2-c2ccccc21 (centres unmarked) [PB-DOPO]	Class 5 (flame does not reach the top level of the sample holder (150 mm). duration ≦ 20 s)	387	5	433 °C	57	HBF	–
CC(CCl)OP(=O)(OC(C)CCl)OC(C)CCl (centres unmarked) [TCPP, Tris(2-chlorisopropyl)phosphate, reference compound]	–	–	–	–	–	–	BKZ Classification [1]: Class 5 (key: Class 3: time 5-20 s; Class 4: time, duration of burning > 20 s; Class 5: flame does not reach the top level of the sample holder (150 mm). duration ≦ 20 s); Burning Rate [3]: 23 mm/min; UL-94 HB Rating [3]: HBF
O=P1(NCCN(CCNP2(=O)Oc3ccccc3-c3ccccc32)P2(=O)Oc3ccccc3-c3ccccc32)Oc2ccccc2-c2ccccc21 (centres unmarked) [TDETA-DOPO]	Class 5 (flame does not reach the top level of the sample holder (150 mm). duration ≦ 20 s)	294	2	385 °C	–	HF-1	–
O=P1(NCCN(CCN(CCN(CCNP2(=O)Oc3ccccc3-c3ccccc32)P2(=O)Oc3ccccc3-c3ccccc32)P2(=O)Oc3ccccc3-c3ccccc32)P2(=O)Oc3ccccc3-c3ccccc32)Oc2ccccc2-c2ccccc21 (centres unmarked) [TEPA-PDOPO, tetraethylenepentaamine DOPO]	Class 5 (flame does not reach the top level of the sample holder (150 mm). duration ≦ 20 s)	–	–	–	–	HF-1	effect of doubling the amount of FR on flame height and extinguishing of the flame [4]: no significant effect; BKZ Class (Vertical) ([1]; 10 pphp FR, OH terminated prepolymer foam): 5; effect of more FR on flammability behavior ([1]; OH terminated prepolymer foam, 5 vs 10 pphp, horizontal and vertical tests): improves flammability behavior in both horizontal and vertical tests; water solubility in words [5]: only very small amounts; solubility [5, 7]: 15.4 mg/L; solubility [5, 8]: 0.01 mmol/L; solubility [5, 9]: 818 mg/L; solubility [5, 10]: 0.65 mmol/L; UL 94 HB test rating (Horizontal) ([3]; 5 pphp FR): HF2; UL 94 HB test rating (Horizontal) ([3]; 10 pphp FR): HF1
CCO[Si](CCCNP1(=O)Oc2ccccc2-c2ccccc21)(OCC)OCC (centres unmarked) [TESPA-DOPO]	–	234	28	135/287/437	–	–	–
